What was measured:
[1] = Antidepressant-like behaviors in rodents; type: in vivo
[2] = biological target: serotonin transporter (SERT) (Homo sapiens, UniProt P31645); assay: Comparative serotonin transporter (SERT) inhibition among antipsychotic agents (FIG. 3); type: biochemical; details: FIG. 3, compared among antipsychotic drugs
[3] = Clinical studies in acute exacerbated schizophrenia: emotional experience symptoms; details: 60 mg P.O. once daily, up to 28 days; patients with acute exacerbated schizophrenia; two clinical studies
[4] = tested on: hippocampal pro- and anti-inflammatory cytokine expression; assay: Restraint stress: hippocampal cytokine expression by qPCR (FIG. 1); type: in vivo, mice; details: 3 mg/kg i.p., 2 h restraint stress, not statistically significant
Method: (§1) Male, C57/B16 mice (n=6-7/group) are divided into three groups—control (vehicle alone, no stress), vehicle—stress (vehicle, i.p.), or ITI-007—stress (3 mg/kg, i.p. in vehicle). For induction of stress, mice are placed in a plastic “decapicones” and placed on the bottom of a warm, clean rodent cage for a 2 h period. These plastic “decapicones” produce an acute restraint stress which triggers neuroinflammation in both hippocampal tissue and peripherally (as shown by serum). At the end of the stress exposure, mice are killed; blood is taken for serum preparation and brain tissue for analysis. Serum is prepared from blood; cytokine measures are performed using MSD multiplex analysis. Brain tissue is analyzed by qPCR for pro-inflammatory cytokine mRNA expression.

[5] = tested on: serum cytokines (IL-1β, IL-6, TNF, IL-10, IFN-gamma); assay: Restraint stress: serum cytokines by MSD multiplex (FIG. 2); type: in vivo, mice; details: pre-treatment 3 mg/kg i.p., 2 h restraint stress
Method: as §1

[6] = Safety and tolerability in humans; type: in vivo
[7] = Symptoms of depression in patients with schizophrenia; type: in vivo, human
[8] = tested on: NMDA receptor currents in mPFC pyramidal neurons; assay: NMDA currents in mPFC slices, whole-cell patch clamp (FIG. 4); type: cell-based, rat
[9] = tested on: mTORC1 signaling pathway (AKT Thr308, mTOR Ser2448, P70s6 kinase Thr389); assay: mTOR signaling pathway phosphoprotein levels in prefrontal cortex (FIG. 7, 8); type: in vivo, rat; details: for mTOR phosphorylation (Serine 2448) / p70s6K phosphorylation (Threonine 389) / phosphorylation of AKT at thr308: rat PFC; for mTOR phosphorylation (Serine 2448) / p70s6K phosphorylation (Threonine 389): lumateperone 3 mg/kg or ketamine 30 mg/kg i.p.; for mTOR phosphorylation (Serine 2448) / phosphorylation of AKT at thr308: 1 hour and 24 hours; for p70s6K phosphorylation (Threonine 389): over the 24 hour period; for phosphorylation of AKT at thr308: one i.p. injection, lumateperone 3 mg/kg or ketamine 30 mg/kg, vs saline
Method: It is known that upstream and downstream effectors of the mTOR (e.g., mTORC1) signaling pathway are increased in the mPFC of rats 1 hour and 24 hours after administration of the rapid-acting antidepressant ketamine.
Pre-frontal cortical phosphorylation levels of AKT (at Threonine 308), mTOR (at Serine 2448) or P70s6 kinase (at Threonine 389) are evaluated after normalization to total protein levels for each target, at both 1 hour and 24 hours. Results are shown as the percent relative change compared to placebo (saline).

[10] = tested on: hippocampal gene expression; assay: NanoString Mouse Neuropathology panel, hippocampal mRNA after LPS; type: in vivo, mice; details: Lumateperone/LPS compared to vehicle/LPS, 3 mg/kg i.p., 2 hours
Method: Immediately after this injection, the mice are injected with either LPS (500 μg/kg diluted in 0.9% saline) or with 0.9% saline. After 2 hours, the mice are sacrificed, and hippocampal mRNA is obtained, as described in Example 1. Hippocampal RNA concentration and integrity are evaluated using an Agilent 2100 Bioanalyzer. Sample preparation, hybridization and detection are carried out according to NanoString manufacturer's instructions (NanoString technologies, WA). RNA (100 ng) expression profiling is performed using the nCounter NanoString Mouse Neuropathology panel, and data are analyzed using the nSolver software to produce and compare direct counts of mRNA. […] The neuropathology panel was developed to include genes of relevance for research in models of neurodegenerative and neurological disorders, such as Alzheimer's disease, Parkinson's disease, Amyotrophic Lateral Sclerosis, Frontotemporal Dementia, and Huntington's disease. The panel includes 770 genes associated with themes of neurotransmission, neuron-glia interaction, neuroplasticity, cell structure integrity, neuroinflammation and metabolism

[11] = tested on: hippocampal cytokine mRNA (IL-1β, IL-6, TNFα, CCL2, IL-4, IL-10); assay: LPS-induced stress: hippocampal cytokine mRNA by qPCR (FIG. 9, 10); type: in vivo, mice
Method: Male, C57/B16 mice (n=6-12/group) are divided into five groups-control (vehicle/saline), vehicle/LPS, and […] at three different doses of ITI-007. Mice are first injected i.p. with either vehicle (5% DMSO, 5% Tween, 15% PEG, 75% water) or ITI-007 at 0.3 mg/kg, 3.0 mg/kg or 8.0 mg/kg. The mice are then immediately injected s.c. with either 0.9% saline or with 500 μg/kg lipopolysaccharide (LPS) diluted in 0.9% saline. After two hours, the animals are sacrificed, and hippocampal slices are obtained and analyzed for cytokine mRNA using qPCR. The results are shown in FIG. 9, normalized to the control group using the delta ct method. […] The results are shown in FIG. 10, normalized to the control group.

[12] = tested on: mTORC1 signaling pathway (AKT Thr308, mTOR Ser2448, P70s6 kinase Thr389); assay: mTOR signaling pathway phosphoprotein levels in prefrontal cortex (FIG. 7, 8); type: in vivo, rat; details: adult rats; lumateperone 1 to 8 mg/kg i.p., ketamine 30 mg/kg; 60 min, 90 min or 24 hours
[13] = tested on: AMPA receptor currents in mPFC pyramidal neurons; assay: AMPA currents in mPFC slices, whole-cell patch clamp (FIG. 5, 6); type: cell-based; details: bath applied to rat mPFC slices, 3-100 nM, 5 min later
Excerpt: Combined administration of the antipsychotic, olanzapine, and the SSRI, fluoxetine, similarly induces rapid antidepressant activity in humans and animals (Tohen et al., 2010); likewise, combined application of olanzapine and fluoxetine is required to induce AMPA receptor currents in vitro.

[14] = tested on: phosphor-mTOR; details: single antidepressant-effective dose; prefrontal cortex and hippocampus of mice and rats; cited from earlier work
[15] = cited from earlier work
[16] = 0.3, 3.0 or 8.0 mg/kg i.p., co-injection with LPS 500 μg/kg s.c., 2 hours, FIG. 9

Chain of serotonin transporter (SERT) (P31645 whole entry, species assumed): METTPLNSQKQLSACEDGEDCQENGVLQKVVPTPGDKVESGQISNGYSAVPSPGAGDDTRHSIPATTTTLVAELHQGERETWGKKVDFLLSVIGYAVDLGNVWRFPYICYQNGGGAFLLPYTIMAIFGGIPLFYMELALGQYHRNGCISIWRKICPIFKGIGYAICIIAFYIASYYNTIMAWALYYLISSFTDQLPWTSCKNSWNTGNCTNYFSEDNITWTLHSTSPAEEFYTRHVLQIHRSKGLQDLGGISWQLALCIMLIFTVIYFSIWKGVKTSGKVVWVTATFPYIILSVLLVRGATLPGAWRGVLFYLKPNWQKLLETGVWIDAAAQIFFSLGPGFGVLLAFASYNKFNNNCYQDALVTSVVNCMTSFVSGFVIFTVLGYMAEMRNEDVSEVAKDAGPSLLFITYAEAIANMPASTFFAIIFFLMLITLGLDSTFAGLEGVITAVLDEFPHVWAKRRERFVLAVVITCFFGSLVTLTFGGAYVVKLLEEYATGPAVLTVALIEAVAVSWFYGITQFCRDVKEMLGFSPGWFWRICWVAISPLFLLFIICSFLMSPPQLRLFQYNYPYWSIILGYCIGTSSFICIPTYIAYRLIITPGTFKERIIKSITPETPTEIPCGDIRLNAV

CN1CCN2c3c(cccc31)[C@@H]1CN(CCCC(O)c3ccc(F)cc3)CC[C@@H]12 (stereo partly drawn) [IC200131]
antidepressant-like behaviors [1]: elicit antidepressant-like behaviors
SERT inhibition [2]: high SERT inhibition

CN1CCN2c3c(cccc31)[C@@H]1CN(CCCC(=O)c3ccc(F)cc3)CC[C@@H]12 [Lumateperone, 4-((6bR,10aS)-3-methyl-2,3,6b,9,10,10a-hexahydro-1H-pyrido[3′,4′:4,5]pyrrolo[1,2,3-de]quinoxalin-8(7H)-yl)-1-(4-fluorophenyl)-1-butanone]
symptoms of emotional experience compared to placebo [3]: significant and unexpected improvement
hippocampal CCL2 and IL-10 levels [4]: elevated
hippocampal expression of pro-inflammatory cytokines by qPCR [4]: generally depressed
stress effects on serum IL-1ρ and IL-6 [5]: significantly attenuates
stress effects on serum TNF and IL-10 [5]: trends, but not statistically significant
safety and tolerability [6]: safe and well-tolerated
antidepressant-like behaviors [1]: elicit antidepressant-like behaviors
symptoms of depression [7]: improves symptoms of depression
NMDA currents ([8]; bath applied to rat mPFC slices, 3-100 nM, 5 min later): enhanced
effect on NMDA and AMPA currents in the presence of the D1 receptor antagonist SCH-23390 ([8]; lumateperone 30 nM, SCH-23390 1 μM): fully blocked
duration of effect on phospho-protein levels at 24 hours ([9]; compared with ketamine 30 mg/kg): longer lasting effect compared with ketamine
AKT thr308 phosphorylation effect at 24 hours versus ketamine ([9]; lumateperone 3 mg/kg vs ketamine 30 mg/kg i.p., not declining in intensity (FIG. 8)): stronger at 24 hours than for ketamine
mTOR phosphorylation (Serine 2448) [9]: Neither ketamine nor lumateperone results in a change
p70s6K phosphorylation (Threonine 389) [9]: progressively increases
phosphorylation of AKT at thr308 [9]: increase phosphorylation
Linear Change, down-regulated genes: Ctns, Jun, Polr2l, Usp21, Csf1, Sirt1, Atf4, Fclrls [10]: 0.80-0.85 fold
Linear Change, down-regulated genes: Hc, Osmr [10]: <0.500-fold
Linear Change, down-regulated genes: Nfe2l2, Naglu, Pla2g4b, Npas4, Nos3 [10]: 0.75-0.80-fold
Linear Change, down-regulated genes: Ptgs2, Cp, Cntf, Tnfrsf1a, Il1R1 [10]: 0.5-0.75-fold
Linear Change, up-regulated gene: Cldn5 [10]: >1.5 fold
Linear Change, up-regulated genes: Egr1, Gata2, Olig2 [10]: 1.25-1.5 fold
Linear Change, up-regulated genes: Phf21a, Islr2, Ngf, Arrb2, Homer1, Notch1, Rapgef2, Pde4d [10]: 1.1-1.25 fold
Linear Change, up-regulated genes: Syt4, Adcy9, Gabrb2, Slc8a1, Inppf5, Scn1a, Pten, Crebbp [10]: 1.0-1.1 fold
hippocampal inflammatory cytokine production, delayed dosing ([11]; 3.0 mg/kg, given 30 minutes after LPS, FIG. 10): suppresses inflammatory cytokine production
hippocampal anti-inflammatory cytokine mRNA (IL-4, IL-10) [11, 16]: significantly enhanced
hippocampal pro-inflammatory cytokine mRNA (IL-1β, IL-6, TNFα, CCL2) [11, 16]: significantly attenuated
activation of the mTORC1 signaling pathway in mPFC (p-Akt thr308, p-P70S6K) [12]: rapidly activates
SERT inhibition [2]: very high SERT inhibition
AMPA currents [13]: enhanced

CNC1(c2ccccc2Cl)CCCCC1=O (stereo not drawn) [ketamine, reference compound]
onset of induction of phosphor-mTOR after administration [14]: ≤ 30 min
ratings on the Hamilton Depression Rating Scale (HDRS) compared to placebo ([15]; 40-minute infusion, total dose 0.5 mg/kg, after 24 hours, Berman et al.): significantly improved ratings
onset of effects after intravenous infusion ([15]; intravenous infusion): ~4 h
persistence of effects ([15]; intravenous infusion): up to 2 weeks
mTOR phosphorylation (Serine 2448) [9]: Neither ketamine nor lumateperone results in a change
p70s6K phosphorylation (Threonine 389) [9]: transiently increase
phosphorylation of AKT at thr308 [9]: increase phosphorylation
activation of the mTORC1 signaling pathway in mPFC (p-Akt thr308, p-P70S6K) [12]: rapidly activates

Source: patent US12409176B2, “Methods of treating acute depression” (INTRA-CELLULAR THERAPIES, INC., priority 2018, dated 2025)
